Measured values as given in US8513232B2, “Substituted spirocyclic piperidine derivatives as histamine-3 (H3) receptor ligands” (Cephalon, Inc., priority 2008, dated 2013).
Read-outs that look alike come from different tables or passages of the source.

Legend:
human H3 receptor = target: T1, human H3 receptor (Homo sapiens, UniProt Q9Y5N1); experiment: Human H3 radioligand binding ([3H]-N-alpha-methylhistamine, SPA)
T1 construct: expressed in transfected cells
In short: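 Compounds (0.01 nM-30 μM) competed with approximately 1 nM [3H]-N-alpha-methylhistamine for human H3 receptor in membranes of stably transfected CHO cells, 10 μg protein per well, in Tris-HCl pH 7.4/MgCl2/BSA buffer for 4 h at room temperature. Bound radioligand measured by scintillation proximity; 10 μM clobenpropit gave non-specific binding.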

[1] = target: T2, rat histamine H3 receptor (Rattus norvegicus, UniProt Q9QYN8); experiment: Rat H3 radioligand binding ([3H]-N-alpha-methylhistamine, SPA)
T2 construct: encoding the entire 445-amino-acid rat histamine H3 receptor; expressed in transfected cells; membrane preparation
In short: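 SPA-bead binding assay using [3H]-N-alpha-methylhistamine (approximately 1 nM final) with test compounds from 0.01 nM to 30 μM. Rat H3 receptor membranes came from stably transfected CHO-A3 cells; incubation ran 4 h at room temperature, in the dark, in Tris pH 7.4 buffer with MgCl2 and BSA. Clobenpropit (10 μM) gave non-specific binding.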

[2] = Table C, human H3 binding, read-out: Human H3 Ki
[3] = Table C, rat H3 binding, read-out: Rat H3 Ki
[4] = human H3 binding, Table D, read-out: Human H3 Ki
[5] = rat H3 binding, Table D, read-out: Rat H3 Ki
[6] = Table A, human H3 binding, read-out: Human Ki
[7] = Table A, rat H3 binding, read-out: Rat Ki
[8] = Human H3 binding, Table B, Examples 136-362, read-out: hum H3 binding Ki
[9] = Rat H3 binding, Table B, Examples 136-362, read-out: rat H3 binding Ki

T2 sequence (Q9QYN8 whole entry): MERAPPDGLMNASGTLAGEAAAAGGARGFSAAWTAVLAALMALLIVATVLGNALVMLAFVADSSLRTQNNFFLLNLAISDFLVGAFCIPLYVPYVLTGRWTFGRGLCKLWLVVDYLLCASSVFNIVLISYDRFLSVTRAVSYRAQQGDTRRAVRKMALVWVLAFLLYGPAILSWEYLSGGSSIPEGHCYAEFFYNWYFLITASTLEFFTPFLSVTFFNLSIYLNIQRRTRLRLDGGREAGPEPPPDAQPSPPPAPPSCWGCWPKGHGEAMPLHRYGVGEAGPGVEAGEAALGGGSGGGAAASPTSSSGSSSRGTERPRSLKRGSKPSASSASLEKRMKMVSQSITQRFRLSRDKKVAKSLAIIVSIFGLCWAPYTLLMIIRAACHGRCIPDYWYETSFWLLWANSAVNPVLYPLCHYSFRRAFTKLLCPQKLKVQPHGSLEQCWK
T1 sequence (Q9Y5N1 whole entry): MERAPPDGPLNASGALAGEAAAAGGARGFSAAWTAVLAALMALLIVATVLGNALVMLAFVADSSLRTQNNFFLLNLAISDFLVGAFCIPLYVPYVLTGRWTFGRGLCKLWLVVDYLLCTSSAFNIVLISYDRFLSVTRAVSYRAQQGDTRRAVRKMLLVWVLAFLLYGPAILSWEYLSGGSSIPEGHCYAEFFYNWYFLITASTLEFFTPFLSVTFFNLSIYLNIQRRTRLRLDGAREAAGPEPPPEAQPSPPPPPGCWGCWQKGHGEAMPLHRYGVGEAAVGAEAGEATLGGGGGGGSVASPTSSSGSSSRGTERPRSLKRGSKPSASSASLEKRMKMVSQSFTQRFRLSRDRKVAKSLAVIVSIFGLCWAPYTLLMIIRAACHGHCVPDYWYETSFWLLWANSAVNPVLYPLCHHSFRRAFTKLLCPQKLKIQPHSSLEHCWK

| Compound | melting point | Ki (human H3 receptor; [8]) [µM] | Ki [1, 9] [µM] | other results |
| --- | --- | --- | --- | --- |
| FC1CCN(c2ccc3c(c2)CCC2(CCN(C4CCC4)CC2)O3)CC1 [Example 397] | > 265 °C (dec.) |  |  | Ki (human H3 receptor; [2]): < 0.2 µM; Ki [1, 3]: < 0.2 µM |
| CC(C)C(=O)N1CCN(c2ccc3c(c2)CCC2(CCN(C4CCC4)CC2)O3)CC1 [Example 381] | 173 to 175 °C |  |  | Ki (human H3 receptor; [2]): < 0.2 µM; Ki [1, 3]: < 0.2 µM |
| O=C(NC1CCOCC1)c1ccc(-c2ccc3c(c2)COC2(CCN(C4CCC4)CC2)O3)c(Cl)c1 [Example 686] | 170 to 173 °C |  |  | Ki (human H3 receptor; [4]): < 0.2 µM; Ki [1, 5]: < 0.2 µM |
| COCc1noc(COc2ccc3c(c2)CCC2(CCN(C4CCC4)CC2)O3)n1 [Example 672] | 178 to 179 °C |  |  | Ki (human H3 receptor; [4]): < 0.2 µM; Ki [1, 5]: < 0.2 µM |
| CNC(=O)c1ccc(-c2ccc3c(n2)COC2(CCN(C4CCC4)CC2)O3)cc1F [Example 133] | 172 to 173 °C |  |  | Ki (human H3 receptor; [6]): < 0.2 µM; Ki [1, 7]: < 0.2 µM |
| FC(F)(F)c1ncccc1-c1ccc2c(c1)COC1(CCN(C3CCC3)CC1)O2 [Example 753] | 190 to 192 °C |  |  | Ki (human H3 receptor; [4]): 0.2 to 1 µM; Ki [1, 5]: 0.2 to 1 µM |
| c1ccc(CN2CCN(c3ccc4c(c3)CCC3(CCN(C5CCC5)CC3)O4)CC2)cc1 [Example 365] | 292 to 293 °C |  |  | Ki (human H3 receptor; [2]): < 0.2 µM; Ki [1, 3]: < 0.2 µM |
| CC(C)NC(=O)c1ccc(-c2ccc3c(c2)COC2(CCN(C4CCC4)CC2)O3)cc1F [Example 356] | 146.5 to 148 °C | < 0.2 | < 0.2 |  |
| OCc1ccc(-c2ccc3c(c2)COC2(CCN(C4CCC4)CC2)O3)s1 [Example 641] | 168 to 169 °C |  |  | Ki (human H3 receptor; [4]): < 0.2 µM; Ki [1, 5]: < 0.2 µM |
| CNC(=O)c1ccc(-c2ccc3c(c2)CCC2(CCN(C4CCC4)CC2)O3)cc1Cl [Example 232] | 144.2 °C | < 0.2 | < 0.2 |  |
| c1cc2c(cc1N1CCC(N3CCOCC3)CC1)COC1(CCN(C3CCC3)CC1)O2 [Example 298] | 142.4 to 144.3 °C | < 0.2 | < 0.2 |  |
| COCCNC(=O)c1ccc(-c2ccc3c(c2)CCC2(CCN(C4CCC4)CC2)O3)cc1F [Example 217] | 190 to 192 °C | < 0.2 | < 0.2 |  |
| CCS(=O)(=O)c1ccc(-c2ccc3c(c2)COC2(CCN(C4CCC4)CC2)O3)s1 [Example 661] | 150 to 152 °C |  |  | Ki (human H3 receptor; [4]): < 0.2 µM; Ki [1, 5]: < 0.2 µM |
| O=C1CCN(c2ccc3c(c2)CCC2(CCN(C4CCC4)CC2)O3)CC1 [Example 399] | > 247 °C (dec.) |  |  | Ki (human H3 receptor; [2]): < 0.2 µM; Ki [1, 3]: < 0.2 µM |
| O=C1CCN(C(=O)c2ccc(-c3ccc4c(c3)CCC3(CCN(C5CCC5)CC3)O4)cc2)CC1 [Example 197] | 82.9 to 84.3 °C |  |  | Ki (human H3 receptor): < 0.2 µM; Ki [1]: < 0.2 µM |
| COc1cccc(N2CCN(c3ccc4c(c3)CCC3(CCN(C5CCC5)CC3)O4)CC2)n1 [Example 382] | 243 to 245 °C |  |  | Ki (human H3 receptor; [2]): < 0.2 µM; Ki [1, 3]: < 0.2 µM |
| CCOC(=O)c1cncc(-c2ccc3c(c2)COC2(CCN(C4CCC4)CC2)O3)c1 [Example 59] | 239.2 °C |  |  | Ki (human H3 receptor; [6]): < 0.2 µM; Ki [1, 7]: < 0.2 µM |
| N#Cc1ccc(NC(=O)Nc2ccc3c(c2)COC2(CCN(C4CCC4)CC2)O3)cc1 [Example 157] | 170 to 172 °C | < 0.2 | < 0.2 |  |
| COc1ccc(-c2ccc3c(c2)COC2(CCN(C4CCC4)CC2)O3)cn1 [Example 22] | 122 to 124 °C |  |  | Ki (human H3 receptor; [6]): < 0.2 µM; Ki [1, 7]: < 0.2 µM |
| OC(c1ccc2c(c1)COC1(CCN(C3CCC3)CC1)O2)c1nccs1 (stereo not drawn) [Example 664] | 70 to 72 °C |  |  | Ki (human H3 receptor; [4]): < 0.2 µM; Ki [1, 5]: < 0.2 µM |
| N#Cc1ccc(Nc2ccc3c(c2)COC2(CCN(C4CCC4)CC2)O3)cc1 [Example 122] | 55 to 60 °C |  |  | Ki (human H3 receptor; [6]): < 0.2 µM; Ki [1, 7]: < 0.2 µM |
| COCCNC(=O)c1ccc(-c2ccc3c(c2)CCC2(CCN(C4CCC4)CC2)O3)cc1 [Example 193] | 158 to 160 °C | < 0.2 | < 0.2 |  |
| c1ccc(N2CCN(c3ccc4c(c3)CCC3(CCN(C5CCC5)CC3)O4)CC2)cc1 [Example 363] | 173 to 175 °C |  |  | Ki (human H3 receptor; [2]): < 0.2 µM; Ki [1, 3]: < 0.2 µM |
| c1ccc(Oc2ccc3c(c2)CCC2(CCN(C4CCC4)CC2)O3)nc1 [Example 241] | 232 to 234 °C | < 0.2 | < 0.2 |  |
| CNC(=O)c1ccc(Oc2ccc3c(c2)CCC2(CCN(C4CCC4)CC2)O3)nc1 [Example 401] | 245 to 247 °C |  |  | Ki (human H3 receptor; [2]): < 0.2 µM; Ki [1, 3]: < 0.2 µM |

| Compound | melting point | Ki (human H3 receptor; [8]) [µM] | Ki [1, 9] [µM] | other results |
| --- | --- | --- | --- | --- |
| O=C(Nc1ccc2c(c1)COC1(CCN(C3CCC3)CC1)O2)c1cc[nH]c(=O)c1 [Example 278] | 260 to 262 °C | < 0.2 | < 0.2 |  |
| O=C(NC1CCOCC1)c1ccc(-c2ccc3c(c2)COC2(CCN(C4CCC4)CC2)O3)cc1F [Example 640] | 165 to 167 °C |  |  | Ki (human H3 receptor; [4]): < 0.2 µM; Ki [1, 5]: < 0.2 µM |
| O=C(c1ccc(-c2ccc3c(c2)CCC2(CCN(C4CCC4)CC2)O3)cc1F)N1CCC(O)CC1 [Example 240] | 102.8 to 104.6 °C | < 0.2 | < 0.2 |  |
| [O-][S+]1CC=C(c2ccc3c(c2)COC2(CC[N+]([O-])(C4CCC4)CC2)O3)CC1 (stereo not drawn) [Example 472] | 130 to 133 °C |  |  | Ki (human H3 receptor; read-out: Human H3 Ki): < 0.2 µM; Ki ([1]; read-out: Rat H3 kI): < 0.2 µM |
| CCOCC1CCN(c2ccc3c(c2)CCC2(CCN(C4CCC4)CC2)O3)CC1 [Example 626] | 101.6 to 103.2 °C |  |  | Ki (human H3 receptor; [4]): < 0.2 µM; Ki [1, 5]: < 0.2 µM |
| Cn1cc2c(n1)CCN(c1ccc3c(c1)CCC1(CCN(C4CCC4)CC1)O3)C2 [Example 430] | 132 to 134 °C |  |  | Ki (human H3 receptor; [2]): < 0.2 µM; Ki [1, 3]: < 0.2 µM |
| O=c1ccc(-c2ccc3c(c2)CCC2(CCN(C4CCC4)CC2)O3)c[nH]1 [Example 429] | 260 to 262 °C |  |  | Ki (human H3 receptor; [2]): < 0.2 µM; Ki [1, 3]: < 0.2 µM |
| O=c1ccc(-c2ccc3c(c2)COC2(CCN(C4CCC4)CC2)O3)c[nH]1 [Example 168] | 145 to 147 °C | < 0.2 | < 0.2 |  |
| CCSc1cc(-c2ccc3c(c2)COC2(CCN(C4CCC4)CC2)O3)c[nH]c1=O [Example 728] | 241 to 243 °C |  |  | Ki (human H3 receptor; [4]): < 0.2 µM; Ki [1, 5]: < 0.2 µM |
| c1ccc(OC2CCN(c3ccc4c(c3)CCC3(CCN(C5CCC5)CC3)O4)CC2)nc1 [Example 412] | 240 to 245 °C |  |  | Ki (human H3 receptor; [2]): < 0.2 µM; Ki [1, 3]: < 0.2 µM |
| O=C(Nc1ccc2c(c1)CCC1(CCN(C3CCC3)CC1)O2)c1ccncc1 [Example 188] | 65 to 67 °C | < 0.2 | < 0.2 |  |
| c1cnc(Nc2ccc3c(c2)COC2(CCN(C4CCC4)CC2)O3)nc1 [Example 127] | 55 to 58 °C |  |  | Ki (human H3 receptor; [6]): < 0.2 µM; Ki [1, 7]: < 0.2 µM |
| COCCNC(=O)c1c(F)cc(-c2ccc3c(c2)CCC2(CCN(C4CCC4)CC2)O3)cc1F [Example 256] | 64.9 to 65.4 °C | < 0.2 | < 0.2 |  |
| O=C(c1ccc(-c2ccc3c(c2)OC2(CCN(C4CCC4)CC2)OC3)cc1)N1CCOCC1 [Example 97] | 55 °C |  |  | Ki (human H3 receptor; [6]): > 1 µM; Ki [1, 7]: 0.2 to 1 µM |
| CCOC(=O)c1ccc(NC(=O)Nc2ccc3c(c2)COC2(CCN(C4CCC4)CC2)O3)cc1 [Example 208] | 188 to 189 °C | < 0.2 | 0.2 to 1 |  |
| c1c[nH]c(-c2ccc3c(c2)COC2(CCN(C4CCC4)CC2)O3)c1 [Example 702] | 179 to 180 °C |  |  | Ki (human H3 receptor; [4]): < 0.2 µM; Ki [1, 5]: < 0.2 µM |
| CO[C@H]1CCN(C(=O)c2ccc(-c3ccc4c(c3)CCC3(CCN(C5CCC5)CC3)O4)cc2)C1 [Example 211] | 70.2 to 71 °C | < 0.2 | < 0.2 |  |
| Cc1n[nH]c(C)c1-c1ccc2c(c1)COC1(CCN(C3CCC3)CC1)O2 [Example 200] | 110 to 112 °C | < 0.2 | < 0.2 |  |
| Cc1nnc(COc2ccc3c(c2)CCC2(CCN(C4CCC4)CC2)O3)o1 [Example 615] | 97 to 98 °C |  |  | Ki (human H3 receptor; [4]): < 0.2 µM; Ki [1, 5]: < 0.2 µM |
| CN(c1ccc2c(c1)COC1(CCN(C3CCC3)CC1)O2)c1ccccn1 [Example 144] | 216 to 220 °C | < 0.2 | < 0.2 |  |
| CNc1cc(C(=O)Nc2ccc3c(c2)COC2(CCN(C4CCC4)CC2)O3)ccn1 [Example 323] | 207 to 208 °C | < 0.2 | < 0.2 |  |
| c1cnc(N2CCN(c3ccc4c(c3)CCC3(CCN(C5CCC5)CC3)O4)CC2)nc1 [Example 369] | 156 to 157 °C |  |  | Ki (human H3 receptor; [2]): < 0.2 µM; Ki [1, 3]: < 0.2 µM |
| OC1(c2ccc3c(c2)COC2(CCN(C4CCC4)CC2)O3)CCOC1 (stereo not drawn) [Example 506] | 50 °C |  |  | Ki (human H3 receptor; read-out: Human H3 Ki): < 0.2 µM; Ki ([1]; read-out: Rat H3 kI): < 0.2 µM |
| COCCNC(=O)c1ccc(-c2ccc3c(c2)CCC2(CCN(C4CCC4)CC2)O3)cn1 [Example 209] | 218 to 219 °C | < 0.2 | < 0.2 |  |
